Here are results for three compounds from patent US4450269A, “Mono-5-substituted-3-chloro-4H-1,2,6-thiadiazin-4-one antifungal agents” (FMC Corporation, priority 1980, dated 1984).

In experiment [1] the test system is Pythium ultimum. The experiment can be described thus: Mycelial growth test. The experiment is classed as cell-based. The following applies: PU; for Percent Fungus Growth Inhibition: 72 hours.
Experiment [2] concerns Fusarium solani. Nature of the experiment: Soil treatment, bean root rot. The experiment is classed as in vivo. The following applies: 150 ppm suspension, 3.8 mg active per pot. Summed up: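 Soil around bean seedlings was drenched with a 150 ppm suspension, giving 3.8 mg active per pot. Twenty-four hours later the soil was inoculated with minced Fusarium solani mycelium. Plants were kept in a greenhouse, and percent control of root rot damage was scored after fourteen days.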

Experiment [3] deals with Pythium ultimum and Rhizoctonia solani. Nature of the experiment: Soil/seed treatment, cucumber damping-off complex. The experiment is classed as in vivo. The following applies: 150 ppm suspension, 3.75 to 3.8 mg per pot. As to the method: Containers having a volume of about 0.25 l. were 2/3 filled with topsoil and 25 cucumber c.v. [Straight Eight` seeds deposited on the soil surface of each pot. A suspension containing 150 ppm of the test chemical was poured over the seeds and into the soil in sufficient quantity to provide 3.75 to 3.8 mg active ingredient per pot.
Fungi used in this test were Pythium ultimum and Rhizoctonia solani. These fungi were each grown on potato dextrose agar for three to six days. The agar plus mycelium was then minced in a blender with water and 10 ml of the resulting slurry of minced mycelium poured over the seeds.
Following inoculation approximately 15 mm of topsoil was spread over the seeds, the container capped and incubated at 4° C. in darkness for three days, then transferred to a greenhouse (27° C.) for 10-14 days, at which time stand counts were made. Captan was used as a standard for comparison. Based on stand counts on Efficacy Index was calculated for each test chemical as follows: [formula]

For experiment [4], the system named is Cercospora beticola. The following applies: in vivo.
Experiment [5] has as its system Uromyces phaseoli. To be noted: in vivo.
Experiment [6] deals with Uromyces phaseoli. To be noted: in vivo. The source holds these as a separate data set.
Experiment [7] has as its system Erysiphe polygoni. To be noted: in vivo.
Experiment [8] concerns Cercospora beticola. Nature of the experiment: whole plant or invertebrate. To be noted: in Beta vulgaris, foliar, 24 h, read-out: Percent Disease Control, curative, sugar beet leaf spot.

As a reminder, the inhibition is the percentage by which the read-out fell short of the control.

In the case of “3-chloro-5-(bromophenoxy)-4H-1,2,6-thiadiazin-4-one [Compound 33]”, the “Percent Fungus Growth Inhibition” value is 69% in experiment [1] (5 ppm), 87% in experiment [1] (10 ppm), 96% in experiment [1] (20 ppm) and 100% in experiment [1] (40 ppm). The “Percent Disease Control, seed/soil, bean root rot” value in experiment [2] is listed as 95%. Moreover, in experiment [3], the “Efficacy Index, seed/soil, cucumber damping-off complex” value is on record as 0. Moreover, the “Percent Disease Control, curative, sugar beet leaf spot” value in experiment [4] turned out to be 0%. For the same compound, in experiment [5], the “Percent Disease Control, curative, bean rust” value is 0%. Besides, in experiment [6], the “Percent Disease Control, foliar, bean rust” value is reported as 100%. Besides, in experiment [7], the “Percent Disease Control, curative, bean powdery mildew” value came to 95%.

Consider “3-chloro-5-[methylaminocarbonyloxy)phenoxyl]-4H-1,2,6-thiadiazin-4-one [Compound 36]”, for which the “Percent Fungus Growth Inhibition” value in experiment [1] (5 ppm) amounted to 0%; in experiment [1] (10 ppm), 42%; in experiment [1] (20 ppm) it was 100%; in experiment [1] (40 ppm), 100%. For the same compound, in experiment [3], the “Efficacy Index, seed/soil, cucumber damping-off complex” value was determined as 13. Also, in experiment [5], the “Percent Disease Control, curative, bean rust” value turned out to be 0%. The “Percent Disease Control, foliar, bean rust” value in experiment [6] turned out to be 100%. Besides, in experiment [7], the “Percent Disease Control, curative, bean powdery mildew” value came out at 0%.

As for `Cc1cc(Oc2nsnc(Cl)c2=O)cc(C)c1Br` [Compound 60, 3-[(4-bromo-3,5-dimethyl)-phenoxy]-5-chloro-4H--1,2,6-thiadiazin-4-one], the inhibition at 5 ppm in experiment [1] (Globisporangium ultimum, 72 h, 5 ppm, read-out: Percent Fungus Growth Inhibition) amounted to 9%. Also, the inhibition at 10 ppm in experiment [1] (Globisporangium ultimum, 72 h, 10 ppm, read-out: Percent Fungus Growth Inhibition) was 0%. In experiment [1] (Globisporangium ultimum, 72 h, 20 ppm, read-out: Percent Fungus Growth Inhibition), the inhibition at 20 ppm turned out to be 0%. In addition, the inhibition at 40 ppm in experiment [1] (Globisporangium ultimum, 72 h, 40 ppm, read-out: Percent Fungus Growth Inhibition) stood at 13%. In addition, in experiment [8], the pest or weed control at 150 ppm is 0%. In addition, the pest or weed control at 150 ppm, 3.8 mg/pot in experiment [2] (Fusarium solani, soil, 336 h, read-out: Percent Disease Control, seed/soil, bean root rot) stood at 0%.
